The values that follow come from PubChem BioAssay (NCI).

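Five compound concentrations were applied to cells in 96-well plates for 48 hours; endpoints were derived by simple linear interpolation of the resulting dose-response curve. Here, GI50 denotes the concentration required for 50% inhibition of growth. The concentration for full growth arrest is given as TGI.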

Common to all, as to assay: DTP human tumour cell line panel, 48 h
Assay [1] deals with SK-OV-3 ovarian.
Assay [2] deals with DU-145 prostate.
For assay [3], the system named is HCT-15 colon.
In assay [4] the test system is KM12 colon.
Assay [5] deals with OVCAR-5 ovarian.
Assay [6] concerns SF-539 CNS.
For assay [7], the system named is UO-31 renal.
In assay [8] the test system is HCC-2998 colon.
For assay [9], the system named is OVCAR-3 ovarian.
The test system of assay [10] is A498 renal.

Take `O=c1c(OC/C(=N/O)c2ccccc2)c(-c2ccccc2)oc2ccccc12`: the GI50 in assay [1] is 20.3 µM; in [2], 17.1 µM; in assay [3], 17.1 µM; in assay [4], 10.6 µM; in assay [5], 22.3 µM; in [6], 12.5 µM. The GI50 in assay [7] is 19.2 µM; in assay [8], 9.64 µM; in assay [9], 8.06 µM. In addition, the TGI in assay [1] is more than 50 µM; in assay [2], more than 50 µM; in assay [3] it was more than 50 µM; in assay [4], 24.6 µM; in [5], more than 50 µM; in [6], 28 µM. Besides, the TGI was more than 50 µM in [7], 17.5 µM in assay [8] and 20.1 µM in assay [9].
`CCOC(=O)/C=C(/CN1C(=O)c2ccccc2C1=O)c1ccccc1`: the TGI in assay [1], in [3], in [4], in [5], in assay [6] and in assay [7] was more than 100 µM each time. Moreover, the TGI in assay [10], in [8] and in [9] was more than 100 µM in each case.
In the case of `CCCCCCCCCCCC(=O)C1=C(O)C(O)CCC1=O` (centres undefined), the TGI is 67.2 µM in assay [1]; 27.3 µM in assay [3]; 43.2 µM in [4]; 80.2 µM in [5]; 45.4 µM in [6]; 64.9 µM in [7]. For the same compound, the TGI in assay [10] is 43.2 µM; in assay [8], 52.9 µM; in assay [9] it was 38.3 µM.
As for `O=C(O)c1nnsc1COCc1ccccc1`, the TGI in assay [1], in [2], in assay [3], in [4], in assay [5] and in assay [6] was more than 100 µM each time. For the same compound, the TGI in assay [7], in [10] and in assay [9] was more than 100 µM each time.
Regarding `c1ccc(COc2ccc3[nH]c4c(ncc5[nH]c6ccccc6c54)c3c2)cc1`, the TGI was determined as 32.9 µM in assay [1]; 14.9 µM in [3]; 29.5 µM in assay [4]; 33.6 µM in [5]; 29.4 µM in [6]; 32.8 µM in [7]. In addition, the TGI came to 41.6 µM in assay [10], 23.6 µM in [8] and 30.3 µM in assay [9].
For `O=C1C=C(c2cc(Br)c(O)c(Br)c2)/C(=C/c2cc(Br)c(O)c(Br)c2)O1`, the GI50 was 31.7 µM in assay [2]; 28.8 µM in assay [3]; 37.6 µM in assay [4]; 64.8 µM in [5]; 24 µM in assay [6]; 19.2 µM in [7]. Besides, the GI50 was 20.1 µM in assay [10], 56.1 µM in assay [8] and 21 µM in assay [9]. Further, the total growth inhibition concentration (TGI) in [2], in [3], in assay [4], in assay [5], in assay [6] and in assay [7] was more than 75 µM throughout. The values for the TGI in [10], in assay [8] and in assay [9] were 57.2 µM, more than 75 µM and 71 µM, respectively.
`CC(SC1=CC(=O)c2c(O)ccc(O)c2C1=O)C(=O)O` (centres undefined): the total growth inhibition concentration (TGI) in [1] was more than 100 µM; in assay [3], more than 55.3 µM; in assay [4], more than 100 µM; in assay [5], more than 100 µM; in [6], more than 100 µM; in assay [7], more than 75.4 µM. Also, the TGI in [10] was more than 100 µM; in assay [8], more than 100 µM; in assay [9] it was 53.1 µM.
For the compound `NC(=O)c1ccccc1NC(=O)C(=O)C(c1cnc2ccc([N+](=O)[O-])cc2n1)[N+](=O)[O-]` (centres undefined), the TGI in assay [1], in assay [3], in [4], in assay [5], in [6] and in assay [7] was more than 100 µM throughout. In addition, the TGI in assay [10], in assay [8] and in assay [9] was more than 100 µM in each case.
For `CCCCCCCCCCCCC(SCCNC(=O)CCNC(=O)C(O)C(C)(C)COP(=O)(O)OP(=O)(O)OCC1OC(n2cnc3c(N)ncnc32)C(O)C1OP(=O)(O)O)C(=O)NCC(N)=O` (centres undefined), the TGI in assay [1] was 98.2 µM; in [3], more than 100 µM; in [4], more than 100 µM; in [5], more than 100 µM; in [6], more than 100 µM; in assay [7] it was more than 100 µM. For the same compound, the TGI in [10], in assay [8] and in assay [9] was more than 100 µM each time.
Consider `c1cncc(C2c3[nH]c4ccccc4c3CCN2CCN2CCCCC2)c1` (centres undefined), for which the TGI in [1], in assay [3], in [4], in [5], in assay [6] and in assay [7] was more than 100 µM throughout. Further, the TGI in [10], in assay [8] and in assay [9] was more than 100 µM throughout.
`COc1cccc2c(=O)c3c(sc12)c(NCCCN)nc1ccccc13`: the GI50 in assay [2] was 1.48 µM; in [3] it was 1.32 µM; in assay [4] it was 1.62 µM; in assay [5], 1.65 µM; in [6] it was 1.6 µM; in [7], 0.832 µM. Further, the values for the GI50 in assay [10], in assay [8] and in assay [9] were 1.68 µM, 1.72 µM and 1.41 µM, respectively. Besides, the TGI is 2.82 µM in assay [2]; 2.7 µM in assay [3]; 3.21 µM in [4]; 3.01 µM in assay [5]; 2.97 µM in [6]; 2.18 µM in [7]. Further, the TGI in assay [10] is 3.15 µM; in assay [8], 3.26 µM; in [9] it was 2.91 µM.
Consider `O=[N+]([O-])/C=C\c1ccc2c(c1)OCO2`, for which the GI50 in assay [1] is 12.1 µM; in assay [2] it was 3.07 µM; in assay [3] it was 2.46 µM; in assay [4] it was 2.04 µM; in assay [5], 11.5 µM; in [6] it was 3.08 µM. Further, the values for the GI50 in [7], in assay [10] and in assay [9] were 1.59 µM, 1.37 µM and 4.1 µM, respectively. Moreover, the TGI was determined as 24.4 µM in [1]; 10.2 µM in assay [2]; 6.68 µM in assay [3]; 4.43 µM in [4]; 26.4 µM in assay [5]; 9.35 µM in assay [6]. The values for the TGI in assay [7], in assay [10] and in [9] were 3.2 µM, 8.14 µM and 15.2 µM, respectively.

The GI50 is the concentration giving 50% growth inhibition. The TGI is the concentration giving total growth inhibition. Lower therefore signals more potent growth arrest.
